Like-named read-outs stand apart in the source and are kept apart here.
Columns and labels:
[1] = target: rat mGlu2 receptor (Rattus norvegicus (Rat), UniProt P31421); assay: mGlu2 in vitro GIRK thallium flux assay; assay type: cell-based; settings: NAM, EC80 glutamate, HEK-293 GIRK cells
Protocol: (§1) All cell culture reagents were purchased from Invitrogen Corp. (Carlsbad, Calif.) unless otherwise noted. Compound activity at the group II (mGlu2 and mGlu3) mGlus was assessed using thallium flux through GIRK channels. Briefly, cells were plated into 384-well, black-walled, clear-bottomed poly-D-lysine-coated plates at a density of 15,000 cells/20 μL/well in DMEM containing 10% dialyzed FBS, 20 mM HEPES, and 100 units/mL penicillin/streptomycin (assay media). Plated cells were incubated overnight at 37° C. in the presence of 5% CO2. […] Cells were incubated for 1 h at room temperature, and the dye exchanged to assay buffer using an ELX405, leaving 20 μL/well. Test compounds were diluted to 2 times their final desired concentration in assay buffer (0.3% DMSO final concentration). […] Cell plates and compound plates were loaded onto a kinetic imaging plate reader (FDSS 6000 or 7000; Hamamatsu Corporation, Bridgewater, N.J.). Appropriate baseline readings were taken (10 images at 1 Hz; excitation, 470±20 nm; emission, 540±30 nm) and test compounds were added in a 20 μL volume and incubated for either 2.5 min or 60 min as indicated before the addition of 10 μL of thallium buffer with or without agonist. After the addition of agonist, data were collected for approximately an additional 2.5 min. Data were analyzed using Excel (Microsoft Corp, Redmond, Wash.). The slope of the fluorescence increase beginning 5 s after thallium/agonist addition and ending 15 s after thallium/agonist addition was calculated, corrected to vehicle and maximal agonist control slope values, and plotted in using either XLfit (ID Business Solutions Ltd) or Prism software (GraphPad Software, San Diego, Calif.) to generate concentration-response curves. Potencies were calculated from fits using a four-point parameter logistic equation. For concentration-response curve experiments, compounds were serially diluted 1:3 into 10 point concentration response curves and were transferred to daughter plates using an Echo acoustic plate reformatter (Labcyte, Sunnyvale, Calif.). Test compounds were applied and followed by EC80 concentrations of glutamate.

[2] = target: rat mGlu3 receptor (Rattus norvegicus (Rat), UniProt P31422); assay: mGlu3 in vitro GIRK thallium flux assay; assay type: cell-based; settings: NAM; 2.5 min compound incubation; EC80 glutamate; HEK-293 GIRK cells
rat mGlu3 receptor, sequence (P31422 23-879): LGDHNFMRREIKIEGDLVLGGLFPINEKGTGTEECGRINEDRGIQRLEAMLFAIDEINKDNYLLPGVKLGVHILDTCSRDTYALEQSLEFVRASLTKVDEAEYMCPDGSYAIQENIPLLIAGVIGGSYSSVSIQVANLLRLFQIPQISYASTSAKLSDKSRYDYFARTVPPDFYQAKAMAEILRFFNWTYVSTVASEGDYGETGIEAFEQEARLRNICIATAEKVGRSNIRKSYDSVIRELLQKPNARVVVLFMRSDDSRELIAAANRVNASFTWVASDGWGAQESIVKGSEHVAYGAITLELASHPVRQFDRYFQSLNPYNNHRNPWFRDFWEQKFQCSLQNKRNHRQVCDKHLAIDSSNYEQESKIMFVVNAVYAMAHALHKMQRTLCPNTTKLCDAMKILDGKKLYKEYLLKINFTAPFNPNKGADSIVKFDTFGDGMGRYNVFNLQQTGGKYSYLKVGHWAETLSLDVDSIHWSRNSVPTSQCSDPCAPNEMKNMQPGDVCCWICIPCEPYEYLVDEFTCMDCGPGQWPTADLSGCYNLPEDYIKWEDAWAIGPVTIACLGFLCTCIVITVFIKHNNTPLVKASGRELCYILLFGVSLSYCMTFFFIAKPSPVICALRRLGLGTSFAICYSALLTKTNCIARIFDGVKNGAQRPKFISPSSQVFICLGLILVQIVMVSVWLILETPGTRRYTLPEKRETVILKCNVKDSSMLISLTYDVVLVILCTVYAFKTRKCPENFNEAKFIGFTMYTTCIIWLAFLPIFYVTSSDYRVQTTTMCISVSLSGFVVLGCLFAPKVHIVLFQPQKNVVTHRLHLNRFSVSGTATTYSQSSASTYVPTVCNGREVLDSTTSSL
Protocol: as §1

[3] = 2.5 min compound incubation, read-out: mGlu2 EC50 (μM) (2.5 min)
[4] = mGlu2 EC50 (μM) (60 min), 60 min compound incubation
[5] = read-out: mGlu2 EC50 (μM) (60 min), 60 min compound incubation

rat mGlu2 receptor, sequence (P31421 19-872): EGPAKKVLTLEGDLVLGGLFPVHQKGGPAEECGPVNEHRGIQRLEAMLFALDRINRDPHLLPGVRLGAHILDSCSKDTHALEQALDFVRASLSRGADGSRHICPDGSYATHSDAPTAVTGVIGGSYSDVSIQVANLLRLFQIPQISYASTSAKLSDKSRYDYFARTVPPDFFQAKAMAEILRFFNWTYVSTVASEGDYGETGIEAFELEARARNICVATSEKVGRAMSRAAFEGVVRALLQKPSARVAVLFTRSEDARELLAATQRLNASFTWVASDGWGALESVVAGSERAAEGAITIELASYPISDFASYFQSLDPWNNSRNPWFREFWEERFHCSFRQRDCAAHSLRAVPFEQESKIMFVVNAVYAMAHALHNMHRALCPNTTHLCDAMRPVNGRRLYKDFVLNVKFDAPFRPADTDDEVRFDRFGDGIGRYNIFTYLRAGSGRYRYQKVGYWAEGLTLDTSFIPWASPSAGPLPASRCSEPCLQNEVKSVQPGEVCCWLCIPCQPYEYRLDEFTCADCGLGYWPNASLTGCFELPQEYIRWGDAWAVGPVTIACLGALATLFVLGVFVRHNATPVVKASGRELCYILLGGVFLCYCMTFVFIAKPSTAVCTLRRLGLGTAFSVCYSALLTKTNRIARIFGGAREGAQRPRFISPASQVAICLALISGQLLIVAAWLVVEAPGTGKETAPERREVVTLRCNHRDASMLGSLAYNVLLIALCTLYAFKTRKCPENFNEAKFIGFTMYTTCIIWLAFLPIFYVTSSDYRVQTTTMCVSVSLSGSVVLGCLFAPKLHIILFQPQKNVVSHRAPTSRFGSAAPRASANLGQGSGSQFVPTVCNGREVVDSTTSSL

SMILES | EC50 [1, 3] | EC50 [1, 4] | EC50 [2] | EC50 [1, 5]
O=C(O)c1cc(-c2cccc(-c3csc(-c4ccoc4)n3)c2)ccc1F [Example 4, 4-Fluoro-3′-(2-(furan-3-yl)thiazol-4-yl)biphenyl-3-carboxylic Acid] | 2.26 µM | 2.5 µM | > 10 µM | 
O=C(O)c1cc(-c2cccc(-c3csc(-c4ccc(C(F)(F)F)nc4)n3)c2)ccc1F [Example 5, 4-Fluoro-3′-(2-(6-(trifluoromethyl)pyridin-3-yl)thiazol-4-yl)biphenyl-3-carboxylic Acid] | 1.35 µM | 0.85 µM | 3.11 µM | 
Cc1nc(-c2cccc(-c3ccc(F)c(C(=O)O)c3)c2)cs1 [Example 6, 4-Fluoro-3′-(2-methylthiazol-4-yl)biphenyl-3-carboxylic Acid] | > 10 µM | > 10 µM | > 10 µM | 
O=C(O)c1cc(-c2cccc(-c3csc(-c4ccco4)n3)c2)ccc1F [Example 7, 4-Fluoro-3′-(2-(furan-2-yl)thiazol-4-yl)biphenyl-3-carboxylic Acid] | 2.4 µM | > 10 µM | > 10 µM | 
O=C(O)c1cc(-c2cccc(-c3csc(-c4cc5ccccc5s4)n3)c2)ccc1F [Example 8, 3′-(2-(Benzo[b]thiophen-2-yl)thiazol-4-yl)-4-fluorobiphenyl-3-carboxylic Acid] | > 10 µM | 1.92 µM | > 10 µM | 
O=C(O)c1cc(-c2ccc(-c3csc(-c4ccccc4)n3)s2)ccc1F [Example 10, 2-Fluoro-5-(5-(2-phenylthiazol-4-yl)thiophen-2-yl)benzoic acid] | > 10 µM | > 10 µM | > 10 µM | 
O=C(O)c1ccc(F)c(-c2cccc(-c3csc(-c4ccccc4)n3)c2)c1 [Example 11, 6-Fluoro-3′-(2-phenylthiazol-4-yl)biphenyl-3-carboxylic Acid] | 1.59 µM | 3.4 µM | > 30 µM | 
COc1ccc(-c2cccc(-c3csc(-c4ccccc4)n3)c2)cc1C(=O)O [Example 12, 4-Methoxy-3′-(2-phenylthiazol-4-yl)-[1,1′-biphenyl]-3-carboxylic Acid] | 1.73 µM | 2.14 µM | 1.77 µM | 
O=C(O)c1cc(-c2cccc(-c3csc(-c4ccccc4)n3)c2)cc([N+](=O)[O-])c1 [Example 13, 5-Nitro-3′-(2-phenylthiazol-4-yl)biphenyl-3-carboxylic Acid] | > 10 µM | > 10 µM | > 10 µM | 
N#Cc1cccc(-c2cccc(-c3csc(-c4ccccc4)n3)c2)c1 [Example 14, 3′-(2-Phenylthiazol-4-yl)biphenyl-3-carbonitrile] | > 30 µM |  | > 30 µM | > 10 µM
O=C(O)c1cc(-c2cccc(-c3csc(-c4cccs4)n3)c2)ccc1F [Example 15, 4-Fluoro-3′-(2-(thiophen-2-yl)thiazol-4-yl)biphenyl-3-carboxylic Acid] | 1.5 µM | 0.93 µM | > 10 µM | 
O=C(O)c1cc(-c2cccc(-c3csc(-c4cc5ccccc5o4)n3)c2)ccc1F [Example 16, 3′-(2-(Benzofuran-2-yl)thiazol-4-yl)-4-fluorobiphenyl-3-carboxylic Acid] | 2.57 µM | 1.93 µM | 3.32 µM | 
O=C(O)c1cc(-c2ccc(-c3csc(-c4ccccc4)n3)cc2)ccc1F [Example 17, 4-Fluoro-4′-(2-phenylthiazol-4-yl)biphenyl-3-carboxylic Acid] | > 30 µM |  | > 30 µM | > 30 µM
O=C(O)c1cc(-c2ccccc2-c2csc(-c3ccccc3)n2)ccc1F [Example 18, 4-Fluoro-2′-(2-phenylthiazol-4-yl)biphenyl-3-carboxylic Acid] | > 10 µM |  | > 10 µM | > 30 µM
O=Cc1cc(-c2cccc(-c3csc(-c4ccccc4)n3)c2)ccc1F [Example 19, 4-Fluoro-3′-(2-phenylthiazol-4-yl)biphenyl-3-carbaldehyde] | 3.67 µM | 1.55 µM | > 10 µM | 
ON=Cc1cc(-c2cccc(-c3csc(-c4ccccc4)n3)c2)ccc1F [Example 20, 4-Fluoro-3′-(2-phenylthiazol-4-yl)biphenyl-3-carbaldehyde oxime] | > 30 µM | > 10 µM | > 30 µM | 

SMILES | EC50 [1, 3] | EC50 [1, 4] | EC50 [2] | EC50 [1, 5]
O=C(O)c1ccc(-c2cccc(-c3csc(-c4ccccc4)n3)c2)cc1Cl [Example 21, 3-Chloro-3′-(2-phenylthiazol-4-yl)biphenyl-4-carboxylic Acid] | > 10 µM | > 10 µM | > 10 µM | 
O=C(O)c1ccc(-c2cccc(-c3csc(-c4ccccc4)n3)c2)cc1 [Example 22, 3′-(2-Phenylthiazol-4-yl)biphenyl-4-carboxylic Acid] | > 30 µM | > 10 µM | > 30 µM | 
COc1ccc(C(=O)O)cc1-c1cccc(-c2csc(-c3ccccc3)n2)c1 [Example 23, 6-Methoxy-3′-(2-phenylthiazol-4-yl)biphenyl-3-carboxylic Acid] | 1.81 µM | 1.35 µM | > 10 µM | 
O=C(O)c1cc(-c2cccc(-c3csc(-c4ccccc4)n3)c2)ccc1Cl [Example 24, 4-Chloro-3′-(2-phenylthiazol-4-yl)biphenyl-3-carboxylic Acid] | 0.57 µM | 0.8 µM | 0.79 µM | 
O=C(O)c1ccccc1-c1cccc(-c2csc(-c3ccccc3)n2)c1 [Example 25, 3′-(2-Phenylthiazol-4-yl)biphenyl-2-carboxylic Acid] | > 10 µM |  | > 10 µM | > 10 µM
O=C(O)c1ccc(-c2cccc(-c3csc(-c4ccccc4)n3)c2)c(Cl)c1 [Example 26, 2-Chloro-3′-(2-phenylthiazol-4-yl)biphenyl-4-carboxylic Acid] | > 30 µM | > 30 µM | > 10 µM | 
O=C(O)c1cc(-c2csc(-c3ccccc3)n2)ccc1F [Example 27, 2-Fluoro-5-(2-phenylthiazol-4-yl)benzoic acid] | > 10 µM | > 30 µM | > 30 µM | 
O=C(O)c1cccc(-c2cccc(-c3csc(-c4ccccc4)n3)c2)c1 [Example 28, 3′-(2-Phenylthiazol-4-yl)biphenyl-3-carboxylic Acid] |  | 0.2 µM | > 10 µM | 
COc1ccc(-c2nc(-c3cccc(-c4cccc(C(=O)O)c4)c3)cs2)cc1OC [Example 29, 3-{3-[2-(3,4-Dimethoxyphenyl)-1,3-thiazol-4-yl]phenyl}benzoic acid] | 2.58 µM | 1.1 µM | 4.02 µM | 
O=C(O)c1cccc(-c2cccc(-c3csc(-c4cccc5ccccc45)n3)c2)c1 [Example 30] | > 10 µM | > 10 µM | > 30 µM | 
COc1ccc(-c2nc(-c3cccc(-c4cccc(C(=O)O)c4)c3)cs2)cc1 [Example 31, 3-{3-[2-(4-Methoxyphenyl)-1,3-thiazol-4-yl]phenyl}benzoic acid] | 1.23 µM | 0.67 µM | 3.09 µM | 
O=C(O)c1cccc(-c2cccc(-c3csc(-c4ccc5ccccc5c4)n3)c2)c1 [Example 32, 3-[3-(2-(2-Naphthyl)-1,3-thiazol-4-yl)phenyl]benzoic acid] | > 10 µM | 4.98 µM | > 30 µM | 
O=C(O)c1cccc(-c2cccc(-c3csc(-c4cccc(C(=O)O)c4)n3)c2)c1 [Example 33, 3-{4-[3-(3-Carboxyphenyl)phenyl]-1,3-thiazol-2-yl}benzoic acid] | 4.83 µM | > 10 µM | > 10 µM | 
O=C(O)c1cccc(-c2cccc(-c3csc(-c4ccc5c(c4)OCCO5)n3)c2)c1 [Example 34, 3-[3-(2-(2H,3H-benzo[e]1,4-dioxin-6-yl)-1,3-thiazol-4-yl)phenyl]benzoic acid] | > 10 µM |  | > 10 µM | 0.28 µM
O=C(O)c1cccc(-c2cccc(-c3csc(-c4ccc(Cl)nc4)n3)c2)c1 [Example 35, 3′-(2-(6-Chloropyridin-3-yl)thiazol-4-yl)biphenyl-3-carboxylic Acid] | 3.83 µM | 0.27 µM | > 10 µM | 
O=C(O)c1cccc(-c2cccc(-c3csc(/C=C/c4ccccc4)n3)c2)c1 [Example 36, (E)-3′-(2-Styrylthiazol-4-yl)biphenyl-3-carboxylic Acid] | 3.47 µM | > 10 µM | > 10 µM | 

Reference: US9969726B2, “Metabotropic glutamate receptor negative allosteric modulators (NAMS) and uses thereof” (Sanford-Burnham Medical Research Institute, priority 2014, dated 2018)
